{
  "source": "paper PMC5561212",
  "about": "“In Vitro Micropatterned Human Pluripotent Stem Cell Test (µP-hPST) for Morphometric-Based Teratogen Screening” (Scientific Reports, 2017)",
  "key": {"[1]": {"details": "cited from earlier work"}, "hPSC": {"test_system": "hPSC", "parameters": "method as in PMID 24123775", "details": "cited from earlier work"}, "[2]": {"test_system": "human pluripotent stem cells", "parameters": "method as in PMID 24154490", "details": "cited from earlier work"}, "[3]": {"details": "cited from earlier work; for In vivo teratogenicity (in words): Supplementary Tables S2, S3; for In vivo teratogenicity: Table 1, known teratogenicity"}, "[4]": {"test_system": "µP-hPSC colonies (H9) under mesoendoderm induction", "experiment": "µP-hPST: mesoendoderm pattern disruption in µP-hPSC colonies and two-step teratogen classification", "details": "for Teratogenicity in µP-hPST / Teratogenicity in µP-hPST (in words): two-step classification rule"}, "[5]": {"test_system": "µP-hPSC colonies (H9) under mesoendoderm induction", "parameters": "method as in earlier work", "details": "compounds tested previously; cited from earlier work"}, "[6]": {"test_system": "adult human dermal fibroblasts (aHDF)", "experiment": "Cytotoxicity assay (MTS), general cytotoxicity", "type": "cell-based", "details": "aHDF cells, 3 days, 25% inhibitory concentration", "procedure": "(§1) A set of 30 compounds of known teratogenicity was selected to establish and validate the µP-hPST (Table 1). The compounds include equal number of non-teratogens and teratogens, and differ in chemical property and therapeutic usage. Before tested in the µP-hPSC colonies, the cytotoxicity profile of each compound was acquired. Two cell lines, hPSC line H9 and adult human dermal fibroblast line aHDF, were tested to represent embryonic cytotoxicity and general cytotoxicity of the compound respectively (Supplementary Figs S1, S2). The IC25 values, which were the 25% inhibitory concentrations, were calculated as the highest non-cytotoxic concentrations of the compound (Table 2, Fig. 1).\n(§2) Human embryonic cell line H9 (WiCell Research Institute, Inc) and adult human dermal fibroblast (aHDF, Lonza) were cultured as previously described. Briefly, H9 cells were cultured in tissue culture plates coated with Matrigel^TM (354277, BD Biosciences) in mTeSR^TM1 medium (05850, StemCell^TM Technologies). Dispase (07923, StemCell^TM Technologies) treatment and mechanical scraping were applied during normal subculture. The aHDF cells was cultured in DMEM medium (10569-010, Gibco), supplemented with 10% FBS (SV30160.03, Thermo Scientific Hyclone) and 1% Pen-Strep (09367-34, Nacalai Tesque). Cells were subcultured every 5–6 days using 0.25% Trypsion-EDTA (25200-114, Gibco) to detach the cells.\n(§3) The adverse effect of test compounds on cell proliferation and viability was detected using CellTiter 96® AQueous One Solution Cell Proliferation Assay (MTS, G3580, Promega). 10,000 H9 cells or 500 aHDF cells were seeded in 96-well tissue culture plates. For H9 cells, Matrigel^TM was coated before seeding. For each compound, 8 concentrations from serial 5-fold dilutions were tested besides the vehicle controls. Cells were cultured for 3 days with medium half change every day before cell viability was measured. Each drug was tested in three independent runs and its IC25 values (inhibitory concentrations which can cause 25% of reduction in cell number) were acquired by logistic regression using OriginPro 9."}, "[7]": {"test_system": "human embryonic cell line H9", "experiment": "Cytotoxicity assay (MTS), embryonic cytotoxicity", "type": "cell-based", "details": "H9 cells, 3 days, 25% inhibitory concentration", "procedure": "as §1, §2, §3"}, "[8]": {"test_system": "mouse embryonic stem cell", "parameters": "method as in PMID 19678733", "details": "cited from earlier work"}, "[9]": {"test_system": "µP-hPSC colonies (H9) under mesoendoderm induction"}, "[10]": {"details": "human plasma, ref U.S. FDA website, EMA website or published journals (Supplementary Table S1)"}},
  "note": "Read-outs that look alike come from different tables or passages of the source.",
  "data": [
    {"smiles": "O=c1[nH]cc(F)c(=O)[nH]1", "note": "[5-Fluorouracil]", "values": [
      {"measurement": "Cmax", "setting": "[1]; [10]", "value": 48400, "unit": "ng/mL"},
      {"measurement": "Teratogenicity in other in vitro assays", "setting": "hPSC", "value": "TER[6], [7]"},
      {"measurement": "Teratogenicity in other in vitro assays", "setting": "[2]", "value": "TER[6], [7]"},
      {"measurement": "In vivo teratogenicity (in words)", "setting": "[3]", "value": "Teratogen"},
      {"measurement": "In vivo teratogenicity", "setting": "[3]", "value": "TER"},
      {"measurement": "Mesoendoderm pattern disruption seen in T fluorescent images", "setting": "[4]; 3 days of compound exposure, in words", "value": "promote both cell differentiation and migration"},
      {"measurement": "Teratogenicity in µP-hPST", "setting": "[4]", "value": "TER"}
    ]},
    {"smiles": "CC(C)(S)[C@@H](N)C(=O)O", "note": "[D-penicillamine]", "values": [
      {"measurement": "LDC", "setting": "[5]", "value": 200, "unit": "µg/mL"},
      {"measurement": "Cmax", "setting": "[1]; compounds tested previously", "value": 200000, "unit": "ng/mL"},
      {"measurement": "In vivo teratogenicity (in words)", "setting": "[3]", "value": "Teratogen"},
      {"measurement": "Teratogenicity in µP-hPST (in words)", "setting": "[4]", "value": "Teratogen"}
    ]},
    {"smiles": "COc1cccc2c1C(=O)c1c(O)c3c(c(O)c1C2=O)C[C@@](O)(C(=O)CO)C[C@@H]3O[C@H]1C[C@H](N)[C@H](O)[C@H](C)O1", "note": "[Doxorubicin]", "values": [
      {"measurement": "IC25aHDF", "setting": "[6]; listed as Doxirubicin", "value": "< 1", "unit": "µg/mL"},
      {"measurement": "IC25H9", "setting": "[7]", "value": 0.0002, "unit": "µg/mL"},
      {"measurement": "IC25H9", "setting": "[7]; listed as Doxirubicin", "value": "< 1", "unit": "µg/mL"},
      {"measurement": "Cmax", "setting": "[1]; [10]", "value": 370, "unit": "ng/mL"},
      {"measurement": "Teratogenicity in other in vitro assays", "setting": "[2]", "value": "TER[7]"},
      {"measurement": "In vivo teratogenicity (in words)", "setting": "[3]", "value": "Teratogen"},
      {"measurement": "In vivo teratogenicity", "setting": "[3]", "value": "TER"},
      {"measurement": "Teratogenicity in µP-hPST", "setting": "[4]", "value": "TER"}
    ]},
    {"smiles": "COc1ccc2nc([S@@+]([O-])Cc3ncc(C)c(OC)c3C)[nH]c2c1", "note": "[Esomeprazole]", "values": [
      {"measurement": "IC25aHDF", "setting": "[6]", "value": 42.1, "unit": "µg/mL"},
      {"measurement": "IC25H9", "setting": "[7]", "value": 38.9, "unit": "µg/mL"},
      {"measurement": "Cmax", "setting": "[1]; [10]", "value": 1620, "unit": "ng/mL"},
      {"measurement": "Teratogenicity in other in vitro assays", "setting": "[2]", "value": "NON[7]"},
      {"measurement": "In vivo teratogenicity", "setting": "[3]", "value": "NON"},
      {"measurement": "Teratogenicity in µP-hPST", "setting": "[4]", "value": "NON"}
    ]},
    {"smiles": "NS(=O)(=O)c1cc(C(=O)O)c(NCc2ccco2)cc1Cl", "note": "[Furosemide]", "values": [
      {"measurement": "IC25aHDF", "setting": "[6]", "value": 30, "unit": "µg/mL"},
      {"measurement": "IC25H9", "setting": "[7]", "value": 362, "unit": "µg/mL"},
      {"measurement": "Classification in mEST (in words)", "setting": "[8]", "value": "misclassified"},
      {"measurement": "Teratogenicity in other in vitro assays", "setting": "[8]", "value": "NON[28]"},
      {"measurement": "In vivo teratogenicity (in words)", "setting": "[3]", "value": "Teratogen"},
      {"measurement": "In vivo teratogenicity", "setting": "[3]", "value": "TER"},
      {"measurement": "Teratogenicity in µP-hPST", "setting": "[4]", "value": "TER"},
      {"measurement": "Teratogenicity in µP-hPST (in words)", "setting": "[4]", "value": "teratogen"}
    ]},
    {"smiles": "C[C@](N)(Cc1ccc(O)c(O)c1)C(=O)O", "note": "[Methyldopa]", "values": [
      {"measurement": "IC25aHDF", "setting": "[6]", "value": 15.9, "unit": "µg/mL"},
      {"measurement": "IC25H9", "setting": "[7]", "value": 23.2, "unit": "µg/mL"},
      {"measurement": "Cmax", "setting": "[1]; [10]", "value": 7500, "unit": "ng/mL"},
      {"measurement": "Teratogenicity in other in vitro assays", "setting": "[2]", "value": "NON[7]"},
      {"measurement": "In vivo teratogenicity", "setting": "[3]", "value": "NON"},
      {"measurement": "Teratogenicity in µP-hPST", "setting": "[4]", "value": "NON"}
    ]},
    {"smiles": "CC1=C(/C=C/C(C)=C/C=C/C(C)=C/C(=O)O)C(C)(C)CCC1", "note": "[Retinoid acid]", "values": [
      {"measurement": "Step1: Is LDC <= IC25 aHDF & IC25H9?", "setting": "[9]", "value": "Y"},
      {"measurement": "Teratogenicity in µP-hPST (in words)", "setting": "[9]", "value": "Teratogen"},
      {"measurement": "LDC", "setting": "[5]", "value": 0.00036, "unit": "µg/mL"},
      {"measurement": "Cmax", "setting": "[1]; compounds tested previously", "value": 347, "unit": "ng/mL"},
      {"measurement": "In vivo teratogenicity (in words)", "setting": "[3]", "value": "Teratogen"}
    ]},
    {"smiles": "O=C1CCC(N2C(=O)c3ccccc3C2=O)C(=O)N1", "note": "(centres unmarked) [Thalidomide]", "values": [
      {"measurement": "LDC", "setting": "[5]", "value": 30, "unit": "µM"},
      {"measurement": "Cmax", "setting": "[1]; compounds tested previously, read-out: Cmax", "value": 10.9, "unit": "µM"},
      {"measurement": "In vivo teratogenicity (in words)", "setting": "[3]", "value": "Teratogen"},
      {"measurement": "Teratogenicity in µP-hPST (in words)", "setting": "[4]", "value": "Teratogen"}
    ]},
    {"smiles": "CCCC(CCC)C(=O)O", "note": "[Valproic acid]", "values": [
      {"measurement": "LDC", "setting": "[5]", "value": 100, "unit": "µM"},
      {"measurement": "In vivo teratogenicity (in words)", "setting": "[3]", "value": "Teratogen"},
      {"measurement": "Teratogenicity in µP-hPST (in words)", "setting": "[4]", "value": "Teratogen"}
    ]},
    {"smiles": "COc1cc2c(Nc3ccc(Br)cc3F)ncnc2cc1OCC1CCN(C)CC1", "note": "[Vandetanib]", "values": [
      {"measurement": "IC25aHDF", "setting": "[6]", "value": 1.1, "unit": "µg/mL"},
      {"measurement": "IC25H9", "setting": "[7]", "value": 0.3, "unit": "µg/mL"},
      {"measurement": "Cmax", "setting": "[1]; [10]", "value": 400, "unit": "ng/mL"},
      {"measurement": "Teratogenicity in other in vitro assays", "setting": "[2]", "value": "TER[7]"},
      {"measurement": "In vivo teratogenicity (in words)", "setting": "[3]", "value": "Teratogen"},
      {"measurement": "In vivo teratogenicity", "setting": "[3]", "value": "TER"},
      {"measurement": "Teratogenicity in µP-hPST", "setting": "[4]", "value": "TER"}
    ]},
    {"smiles": "O=C1Cc2cc(CCN3CCN(c4nsc5ccccc45)CC3)c(Cl)cc2N1", "note": "[Ziprasidone]", "values": [
      {"measurement": "IC25aHDF", "setting": "[6]", "value": 2.7, "unit": "µg/mL"},
      {"measurement": "IC25H9", "setting": "[7]", "value": 14.4, "unit": "µg/mL"},
      {"measurement": "Cmax", "setting": "[1]; [10]", "value": 200, "unit": "ng/mL"},
      {"measurement": "Teratogenicity in other in vitro assays", "setting": "[2]", "value": "TER[7]"},
      {"measurement": "In vivo teratogenicity (in words)", "setting": "[3]", "value": "Teratogen"},
      {"measurement": "In vivo teratogenicity", "setting": "[3]", "value": "TER"},
      {"measurement": "Teratogenicity in µP-hPST", "setting": "[4]", "value": "TER"}
    ]}
  ]
}
